Assay results published in patent US5004593A (Mayo Foundation for Medical Education and Research, priority 1989, dated 1991).
Entries after “also recorded” stand apart in the source; their conditions may differ. Structures can show the parent of a compound that is named as a salt.

Key:
[1] = i.v., dogs, one specific HMM hydrochloride preparation; cited from earlier work
[2] = man; cited from earlier work
[3] = Phase I plasma and urine pharmacokinetics of intravenous HMM in Intralipid 10% (GC assay); assay type: in vivo, human (cancer patients)
Experimental: (§1) Eighteen patients were treated on the one day every four weeks schedule and 28 patients were treated on the daily ×5 four weeks schedule. Tumors included lung, colorectal, gastric, breast, ovarian, renal, bladder, parotide, hepatic, small bowel, thyroid, fibrosarcoma and fibroblastic osteosarcoma. Forty-five of 47 patients had received prior chemotherapy and/or radiotherapy. All patients had histologic or cytologic confirmation of unresectable cancer for which there was no conventional means of therapy that offered reasonable hope of cure or of significant palliation. All patients were ambulatory and in a reasonable state of nutrition. Patients were required to have WBC count ≥4,000/mm^2, platelet count ≥130,000 m^2, hemoglobin ≥10 g/dl, serum creatinine ≤1.5 mg/dl, ECOG performance status <3, fasting serum triglycerides ≤500 mg/dl. Patients were excluded if they presented with uncontrolled infections, persistent (daily) nausea and/or vomiting, significant chronic obstructive pulmonary disease, any neurologic impairment, major surgery within the proceeding 30 days, radiation to >15% of the bone marrow within 30 days or radiation to total area >30% of bone marrow at any time.
(§2) Tests done prior to entry into study included a history, physical examination and tumor measurement whenever possible, WBC count, hemoglobin, platelet count, chest x-ray, electrocardiogram, electroencephalogram, urine analysis, triglycerides, SGOT, and serum creatinine. Between courses of treatment, the hematology group was checked twice weekly and the hemoglobin, SGOT and serum creatinine once weekly. Triglycerides were determined before and after each HMM treatment. Patients were entered in groups of three at each dose level. New patients were entered at a higher dose level only after the three patients treated at the previous level had been observed for a minimum of three weeks, counting from the last day of treatment. Patients not having significant toxicity at a given dose level were retreated at the next higher dose level but a minimum of three patients who never received HMM were entered at each escalation on each schedule. Dose levels on the daily ×5 schedule were […]. Dose increments for the one-day schedule were 360, 540, 675, 750, 844, and 1,000 mg/m^2.
(§3) Unit dose amounts of drug, Intralipid 10%®, and diluents were changed as dose levels of HMM increased throughout the study. At doses which will be relevant for Phase II evaluation of the parenteral formulation, the following drug preparation scheme was employed. The Mayo Comprehensive Cancer Center Pharmacy weighed 500 mg portions of bulk HMM into sterile vials. HMM was dissolved in 0.1 N hydrochloric acid (sterile HCl for parenteral administration, USP) by adding 27.50 ml of the 0.1 N HCl to each 500 mg vial. The concentration of this solution was 18.2 mg HMM.HCl/ml. The volume of the HMM.HCl solution to be drawn up for each patient was determined by dividing the patient dose level by 18.2 (e.g., for a 750 mg dose, 750 mg divided by 18.2 mg/ml =41.2 ml of the HMM.HCl solution withdrawn from the vial). A 0.22 micron filter assembly was fitted to the syringe containing the appropriate HMM.HCl solution. The volume was filtered into a 500 ml empty sterile and sealed vial. Thus, the correct patient dose was placed in the evacuated vial. An equal volume of air was withdrawn from the sealed vial to maintain vacuum.
(§4) The amount of Intralipid 10%® to be added was determined by dividing the dose by 5.1 (e.g. 750 divided by 5.1=147 ml). The appropriate volume of Intralipid 10%® was added to the 500 ml vial containing the HMM.HCl solution. […]

[4] = Phase I clinical trial, toxicity of intravenous HMM; assay type: in vivo, human (cancer patients)
Experimental: as §1, §2, §3, §4

refractory tumors = experiment: Phase I clinical trial, tumor response to intravenous HMM; assay type: in vivo, human (cancer patients); details: i.v.
Experimental: as §1, with “Patients were excluded if they presented with uncontrolled infections, persistent (daily) nausea and/or vomiting, significant chronic obstructive pulmonary disease, any neurologic impairment, major surgery within the proceeding 30 days, radiation to >15% of the bone marrow within 30 days or radiation to total area >30% of bone marrow at any time.” left out
Tests done prior to entry into study included a history, physical examination and tumor measurement whenever possible, WBC count, hemoglobin, platelet count, chest x-ray, electrocardiogram, electroencephalogram, urine analysis, triglycerides, SGOT, and serum creatinine. […] Triglycerides were determined before and after each HMM treatment. […]

[5] = HMM concentration in formulation before and after filtration (% theoretical) and precipitation; assay type: physicochemical; details: for % Theoretical HMM Concentration, After Filter: 0.45μ filter
Experimental: as §3
The amount of Intralipid 10%® to be added was determined by dividing the dose by 5.1 (e.g. 750 divided by 5.1=147 ml). The appropriate volume of Intralipid 10%® was added to the 500 ml vial containing the HMM.HCl solution. Finally, the volume of sodium bicarbonate (sodium bicarbonate for parenteral injection, USP, 1 mEq/ml) was determined by the formula of 0.1 ml sodium bicarbonate for every 20 mg of HMM to be administered (e.g., 750 mg divided by 20=37.5×0.1 ml =3.75 ml sodium bicarbonate). This provided approximately a 4 mg/ml solution of HMM-Intralipid 10%®. A vented tubing set was added to the bottle with the patient's dose. A particulate filter (4.5 micron) was attached to an 18 gauge needle and the filter and needle were placed on the tubing to fill the 500 ml empty bag. The drug was administered at a rate of 2 ml/min or 8 mg/min. Thus, infusion time was lengthened as dose levels increased maintaining a constant rate of drug administration. Fifty (50) ml of normal saline was infused following completion of the HMM infusion.
Details of drug preparation are described in the Methods section while a summary of the formulation procedure is shown in Table 1, below.
This modification of the initial formulation reported in Cancer Treat. Rep., 66, 1579 (1982) to first dissolve the HMM in aqueous HCl, eliminated the use of a toxic organic solvent (ethanol or dimethylacetamide) while ensuring complete and uniform mixing of drug with Intralipid 10%®. Assessment of the formulated product was determined at each step of the procedure by measuring HMM concentrations before and after filtration through 0.45 micron filters (Intralipid 10%® average particle size is approximately 0.40 micron). […] HMM concentrations following filtration of such mixtures yielded <5% of the theoretical HMM concentration.

[6] = tested on: ovarian adenocarcinoma, metastatic small cell carcinoma of the lung, metastatic breast cancer and refractory lymphoma; details: single agent clinical trials; cited from earlier work
[7] = clinical; cited from earlier work
[8] = cited from earlier work
[9] = oral administration, man; cited from earlier work
[10] = oral administration, rabbits; due to extensive first-pass metabolism rather than poor absorption; cited from earlier work
[11] = 540 mg/m^2 i.v., three-compartment open model
[12] = i.v., one-day or daily ×5 schedules
[13] = after NaHCO3 (1 mEq/ml) 0.1 ml:5 ml, ca. 4 mg/ml
[14] = dissolved in 0.1 N HCl, ca. 20 mg/ml

Question: For `CN(C)c1nc(N(C)C)nc(N(C)C)n1` [HMM hydrochloride], which “tolerability, intravenous” value [1] is on record?
Answer: well-tolerated

Question: And the “local irritation and phlebitis” value [2]?
Answer: severe local irritation and phlebitis

Question: For `CN(C)c1nc(N(C)C)nc(N(C)C)n1` [HMM, 2,4,6-tris(dimethylamino)-1,3,5-triazine], which “steady state volume of distribution” value [3, 11] is on record?
Answer: 460 1/m^2

Question: What about the “steady state volume of distribution (Vdss)” value [3, 11] of the same molecule?
Answer: 460 l/m^2

Question: And the terminal half-life [3, 11]?
Answer: 10.4 h

Question: And the “total body clearance (ClTB)” value [3, 11]?
Answer: 0.75 1/min/m^2

Question: And the “accumulation during five-day treatment” value ([3]; 945 mg/m^2, daily ×5)?
Answer: disproportionate accumulation

Question: And the “observed vs predicted (simulated) 24 hour trough plasma concentrations” value ([3]; 945 mg/m^2, daily ×5)?
Answer: significantly greater than predicted

Question: And the “accumulation during five-day treatment” value ([3]; 945 mg/m^2, daily ×5, listed as hexamethylmelamine)?
Answer: possible saturation of parent drug elimination

Question: And the “observed vs predicted (simulated) 24 hour trough plasma concentrations” value ([3]; 506 and 632 mg/m^2, daily ×5)?
Answer: in agreement with predicted values

Question: What about the “Twenty-four hour urinary recoveries of parent drug” value ([3]; 24 h, all patients) of the same molecule?
Answer: less than one

Question: And the “HMM 24 hours following each dose” value ([3]; daily ×5 schedule, plasma)?
Answer: detected

Question: What about the “change of 24 hour drug concentration over days” value ([3]; daily ×5 schedule, plasma) of the same molecule?
Answer: increased each day

Question: And the Cmax ([3]; human, iv, 540 mg/m^2 one-day schedule, five patients, plasma, read-out: Peak concentrations of HMM at the end of infusion)?
Answer: 2550 to 9350 ng/mL

Question: What about the half-life ([3]; human, plasma, iv, 540 mg/m^2 i.v., three-compartment open model, read-out: terminal half-life (converted)) of the same molecule?
Answer: 10.4 h

Question: What about the dose excreted at 24 h ([3]; human, urine, iv, 24 h, read-out: 24 hour urinary recovery of parent drug) of the same molecule?
Answer: < 1%

Question: And the “plasma levels / plasma AUC compared with oral administration” value ([3]; i.v. vs oral)?
Answer: Substantially higher plasma AUC values

Question: And the “consistency of plasma concentrations compared with oral” value ([3]; i.v. vs oral (D'Incalci))?
Answer: more consistent plasma concentrations

Question: And the demethylated urinary metabolites ([3]; urine)?
Answer: Demethylated urinary metabolites including penta-, tetra-, tri-, and di-methylmelamines were detected in urine

Question: And the “white blood cell counts” value ([4]; all patients)?
Answer: ≥ 3,000 /μl

Question: What about the maximally tolerated dose ([4]; daily ×5 schedule, i.v.) of the same molecule?
Answer: ~630 mg/m^2 /day

Question: What about the maximum-tolerated doses ([4]; five days in a row every four weeks) of the same molecule?
Answer: 500-600 mg/m^2 /day

Question: What about the myelosuppression ([4]; i.v.) of the same molecule?
Answer: minimal myelosuppression

Question: And the “peripheral neuropathy compared with oral administration” value ([4]; i.v. aqueous fat emulsion vs same amount orally)?
Answer: reduced from the level observed when the same amount of HMM is administered orally

Question: And the “CNS toxicity, peripheral neuropathy” value [4, 12]?
Answer: no CNS toxicity, specifically peripheral neuropathy, was noted in any patients

Question: And the dose-limiting toxicity [4, 12]?
Answer: nausea and vomiting

Question: And the “platelet nadir below 100,000/μl (one patient)” value ([4]; one-day administration of 540 mg/m^2)?
Answer: 75,000 /μl

Question: And the hematologic toxicities ([4]; one-day or five-day regimen)?
Answer: no significant hematologic toxicities

Question: What about the maximally tolerated dose ([4]; one-day schedule, i.v.) of the same molecule?
Answer: approximately 850 mg/m^2

Question: And the tumor responses (refractory tumors)?
Answer: No objective responses; also recorded: no tumor responses were observed

Question: What about the “% Theoretical HMM Concentration, After Filter” value ([5]; after Intralipid 10% added 4 ml:1 ml, ca. 4 mg/ml) of the same molecule?
Answer: 100%

Question: And the “% Theoretical HMM Concentration, Before Filter” value [5, 13]?
Answer: 100%

Question: And the “% Theoretical HMM Concentration, After Filter” value [5, 13]?
Answer: 100%

Question: And the “% Theoretical HMM Concentration, Before Filter” value [5, 14]?
Answer: 100%

Question: What about the “% Theoretical HMM Concentration, After Filter” value [5, 14] of the same molecule?
Answer: 100%

Question: What about the “HMM concentration in the final filtered product, % of theoretical” value ([5]; final product, 0.45 micron filter) of the same molecule?
Answer: 90-95%

Question: And the active against cancers [6]?
Answer: active against a number of cancers including ovarian adenocarcinoma, metastatic small cell carcinoma of the lung, metastatic breast cancer and refractory lymphoma

Question: And the delayed toxicity [7]?
Answer: moderate anemia, thrombocytopenia, leukopenia, and a peripheral neuropathy

Question: What about the “main acute adverse effects” value [7] of the same molecule?
Answer: Nausea and vomiting

Question: And the “peripheral neuropathy, symptoms” value [7]?
Answer: parethesias, hypesthesias, motor weakness, and other sensory alterations

Question: And the “solubility in water and nontoxic solvents” value [8]?
Answer: very limited solubility in water and nontoxic solvents

Question: And the “plasma concentrations of parent drug” value [9]?
Answer: Low and variable plasma concentrations of parent drug

Question: And the bioavailability [10]?
Answer: poor bioavailability
